A word on the IC50: it is the concentration that inhibits the measured activity by half. Low readings indicate higher potency, high ones lower potency.

Read-outs that look alike come from different tables or passages of the source.

We go through nine compounds from article PMC10716264 (Frontiers in Medicine, 2023).

For series [1], the system named is SARS-CoV-2 (2019-nCoV-WIV04). Kind of series: microbe, parasite or virus in culture. Conditions: read-out: EC50 against SARS-CoV-2 virus. The format is cell-based.
For another series, the target named is SARS-CoV-2 3CLpro (Severe acute respiratory syndrome coronavirus 2, UniProt P0DTD1). Kind of series: biochemical.
In series [2] the test system is influenza A/California/07/09 (H1N1) strain. Kind of series: microbe, parasite or virus in culture. It counts as cell-based. Conditions: read-out: EC50 (effective 50% concentration), MDCK cells.
On the set-up of series [3]: method as in earlier work. Conditions: co-administration with ritonavir; cited from earlier work.
Series [4] addresses SARS-CoV-2 RdRp complex (nsp12-nsp7-nsp8) (Severe acute respiratory syndrome coronavirus 2, UniProt P0DTD1). The format is biochemical.
The test system of the next series is COVID-19. Also on record: method as in PMID 32568613. Conditions: unvaccinated symptomatic adults, Nirmatrelvir-based therapy; cited from earlier work.
Where [5] appears, read: Severe acute respiratory syndrome coronavirus 2, Vero C1008, 24 h.

As to “2,4-bis-O-galloyl-1,3,6-tri-O-galloyl-β-D-glucose [R-7]”, the EC50 in series [1] amounted to 17.5 µM. This compound also showed an IC50 against SARS-CoV-2 3CLpro of 9.84 µM.

For the compound `NC(=O)c1nc(F)c[nH]c1=O` [Favipiravir], the EC50 in series [2] was found to be 24 µM.

In the case of `Cc1cccc(C)c1OCC(=O)N[C@@H](Cc1ccccc1)[C@@H](O)C[C@H](Cc1ccccc1)NC(=O)[C@H](C(C)C)N1CCCNC1=O` [Lopinavir], the “increase of area under the plasma concentration-time curve” value in series [3] is on record as “more than 100 times”.

For `O=c1c(O)c(-c2cc(O)c(O)c(O)c2)oc2cc(O)cc(O)c12` [Myricetin], in series [4] (250 μM), the “formation of the RdRp-RNA complex” value is given as “completely blocked”. Also, the “inhibition of primer elongation” value in series [4] (gel assay, compared with Rutan) was “showed inhibitory activity in higher concentrations”.

Regarding `CC(C)(C)[C@H](NC(=O)C(F)(F)F)C(=O)N1C[C@H]2[C@@H]([C@H]1C(=O)N[C@H](C#N)C[C@@H]1CCNC1=O)C2(C)C` [Nirmatrelvir], the “reduction of the risk of severe complications following COVID-19 infection” value in the series on COVID-19 is 89%.

For `O=C(OC[C@H]1O[C@@H](OC(=O)c2cc(O)c(O)c(O)c2)[C@H](OC(=O)c2cc(O)c(O)c(O)c2)[C@@H](OC(=O)c2cc(O)c(O)c(O)c2)[C@@H]1OC(=O)c1cc(O)c(O)c(O)c1)c1cc(O)c(O)c(O)c1` [R-5, 1,2,3,4,6-penta-O-galloyl-β-D-glucose], the EC50 in series [1] (setting [5]) is 7.49 µM.

On to `O=C(OC[C@H]1O[C@@H](OC(=O)c2cc(O)c(O)c(O)c2)[C@H](OC(=O)c2cc(O)c(O)c(O)c2)[C@@H](OC(=O)c2cc(O)c(O)c(OC(=O)c3cc(O)c(O)c(O)c3)c2)[C@@H]1OC(=O)c1cc(O)c(O)c(O)c1)c1cc(O)c(O)c(O)c1` [R-6, 3-bis-O-galloyl-1,2,4,6-tetra-O-galloyl-β-D-glucose], for which the EC50 in series [1] (Severe acute respiratory syndrome coronavirus 2, Vero C1008, Vero E6 cells, MOI 0.01, 24 h post-infection, viral copies by qRT-PCR) worked out at 5.95 µM. In addition, 9.92 µM corresponded to half-maximal inhibition against SARS-CoV-2 3CLpro (IC50).

Turning to `O=C(OC[C@H]1O[C@@H](OC(=O)c2cc(O)c(O)c(O)c2)[C@H](OC(=O)c2cc(O)c(O)c(OC(=O)c3cc(O)c(O)c(O)c3)c2)[C@@H](OC(=O)c2cc(O)c(O)c(OC(=O)c3cc(O)c(O)c(O)c3)c2)[C@@H]1OC(=O)c1cc(O)c(O)c(OC(=O)c2cc(O)c(O)c(O)c2)c1)c1cc(O)c(O)c(O)c1` [R-8, 2,3,4-bis-O-galloyl-1,6-di-O-galloyl-β-D-glucose], the IC50 at SARS-CoV-2 3CLpro (Rutan and components (Figure 4)) amounted to 1.34 µM.

With `CCC(CC)COC(=O)[C@H](C)N[P@](=O)(OC[C@H]1O[C@@](C#N)(c2ccc3c(N)ncnn23)[C@H](O)[C@@H]1O)Oc1ccccc1` [Remdesivir], in series [1] (setting [5]), the EC50 came to 2 µM.
